Measured values as given in patent EP4741389A1, “KAT6 INHIBITOR” (Shanghai Qilu Pharmaceutical Research and Development …, priority 2023, dated 2025).

Key:
KAT6A = target: T1, KAT6A (Homo sapiens, UniProt Q92794); experiment: KATs acetyltransferase enzyme activity assay (TR-FRET), KAT6A; assay type: biochemical; conditions: Biotin-H3 (1-21) and AcCOA, 90 minutes at room temperature
T1 construct: purchased Active Motif 81223
Description: (§1) I. KATs acetyltransferase enzyme activity assay
• 1. The inhibitory effect of compounds on the acetyltransferase activity of KATs was evaluated using the Time-Resolved Fluorescence Resonance Energy Transfer (TR-FRET) assay. The assay was conducted in 384-well plates using Tris-HCl buffer. • 2. Compounds were diluted in DMSO and transferred to 384-well plates. […] Subsequently, 2.5 µL of a mixture containing KAT6A/KAT6B: Biotin-H3 (1-21, Genscript, C6829GL060) or KAT5/7/8: Bio-H4 (1-25, Genscript, C736BGL100) AcCOA (Sigma, A2056) was added, and the reaction proceeded at room temperature for 90 minutes. • 4. After the reaction, a detection mixture containing Europium-anti-acetyl-Histone H4 Lysine (H4Kac pan) Antibody (Perkin Elmer, TRF0412) and LANCE Ultra ULight™-Streptavidin in LANCE™ Detection buffer (10x) (Perkin Elmer, CR97-100) was added, followed by incubation at room temperature for 60 minutes. • 5. […] IC50 values were calculated by nonlinear regression using a four-parameter logistic equation in GraphPad Prism 8 software.

KAT6B = target: T2, KAT6B (Homo sapiens, UniProt Q8WYB5); experiment: KATs acetyltransferase enzyme activity assay (TR-FRET), KAT6B; assay type: biochemical; conditions: Biotin-H3 (1-21) and AcCOA, 90 minutes at room temperature
T2 construct: purchased Active Motif 81224
T2 sequence (Q8WYB5 whole entry): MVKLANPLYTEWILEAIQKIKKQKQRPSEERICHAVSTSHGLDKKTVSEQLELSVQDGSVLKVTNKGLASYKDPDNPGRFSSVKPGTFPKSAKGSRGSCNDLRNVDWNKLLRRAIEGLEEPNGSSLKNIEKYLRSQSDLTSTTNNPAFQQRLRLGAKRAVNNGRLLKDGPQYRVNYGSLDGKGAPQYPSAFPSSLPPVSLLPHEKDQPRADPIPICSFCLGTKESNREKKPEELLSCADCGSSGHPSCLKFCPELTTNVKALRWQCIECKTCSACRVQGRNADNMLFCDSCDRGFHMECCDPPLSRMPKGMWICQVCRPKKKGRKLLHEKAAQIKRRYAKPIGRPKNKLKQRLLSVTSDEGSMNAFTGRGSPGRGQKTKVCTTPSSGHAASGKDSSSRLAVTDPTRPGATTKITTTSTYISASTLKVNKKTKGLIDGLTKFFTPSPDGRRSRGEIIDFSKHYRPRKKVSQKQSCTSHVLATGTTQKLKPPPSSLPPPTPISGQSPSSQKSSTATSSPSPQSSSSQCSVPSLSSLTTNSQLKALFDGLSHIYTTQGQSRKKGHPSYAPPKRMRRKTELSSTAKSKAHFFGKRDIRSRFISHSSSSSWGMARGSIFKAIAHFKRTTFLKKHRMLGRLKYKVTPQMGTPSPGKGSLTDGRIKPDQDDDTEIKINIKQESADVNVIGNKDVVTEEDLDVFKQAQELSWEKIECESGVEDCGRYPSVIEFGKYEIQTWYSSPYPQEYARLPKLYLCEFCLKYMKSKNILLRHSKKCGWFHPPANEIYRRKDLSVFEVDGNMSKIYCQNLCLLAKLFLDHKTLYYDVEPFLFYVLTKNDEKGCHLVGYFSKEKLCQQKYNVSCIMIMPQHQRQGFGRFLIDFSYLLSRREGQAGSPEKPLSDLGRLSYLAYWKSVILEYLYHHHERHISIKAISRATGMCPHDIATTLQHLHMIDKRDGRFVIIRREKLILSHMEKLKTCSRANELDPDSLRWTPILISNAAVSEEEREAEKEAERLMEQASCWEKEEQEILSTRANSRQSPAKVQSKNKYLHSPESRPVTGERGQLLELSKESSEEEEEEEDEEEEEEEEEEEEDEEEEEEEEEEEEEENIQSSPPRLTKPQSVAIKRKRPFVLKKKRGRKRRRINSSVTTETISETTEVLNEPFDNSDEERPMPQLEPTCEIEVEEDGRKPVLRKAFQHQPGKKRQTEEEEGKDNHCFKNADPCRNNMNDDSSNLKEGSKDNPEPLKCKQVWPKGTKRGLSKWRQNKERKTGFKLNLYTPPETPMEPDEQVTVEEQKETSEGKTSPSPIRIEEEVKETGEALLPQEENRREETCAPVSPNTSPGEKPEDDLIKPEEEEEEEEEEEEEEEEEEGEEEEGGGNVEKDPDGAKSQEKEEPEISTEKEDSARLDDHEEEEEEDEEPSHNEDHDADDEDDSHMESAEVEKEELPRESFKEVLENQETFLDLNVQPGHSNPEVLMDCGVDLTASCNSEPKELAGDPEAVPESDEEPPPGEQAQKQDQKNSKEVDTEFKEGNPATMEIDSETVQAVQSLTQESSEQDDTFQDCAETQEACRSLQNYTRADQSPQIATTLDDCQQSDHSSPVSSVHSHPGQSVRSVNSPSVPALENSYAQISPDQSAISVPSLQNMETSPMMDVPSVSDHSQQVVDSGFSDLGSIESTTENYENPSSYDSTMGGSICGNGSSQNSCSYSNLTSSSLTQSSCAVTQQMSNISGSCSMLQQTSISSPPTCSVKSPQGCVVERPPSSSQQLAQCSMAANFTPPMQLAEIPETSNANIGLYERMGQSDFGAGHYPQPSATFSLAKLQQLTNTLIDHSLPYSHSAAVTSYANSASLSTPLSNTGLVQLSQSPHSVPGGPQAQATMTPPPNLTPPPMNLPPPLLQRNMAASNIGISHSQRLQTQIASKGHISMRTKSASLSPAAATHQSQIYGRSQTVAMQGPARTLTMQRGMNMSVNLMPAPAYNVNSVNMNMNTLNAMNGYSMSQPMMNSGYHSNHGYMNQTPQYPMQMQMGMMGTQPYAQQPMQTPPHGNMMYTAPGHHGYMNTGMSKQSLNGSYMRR
Description: as §1
• 1. The inhibitory effect of compounds on the acetyltransferase activity of KATs was evaluated using the Time-Resolved Fluorescence Resonance Energy Transfer (TR-FRET) assay. The assay was conducted in 384-well plates using Tris-HCl buffer. • 2. Compounds were diluted in DMSO and transferred to 384-well plates. Enzyme solutions (KAT6: active motif (kit), 81223; KAT6B: active motif, 81224; KAT5: SignalChem, K314-380G; KAT7: ICE, S2210F-H21HF; KAT8: Active motif, 81225) were added and the mixture was incubated at room temperature for 15 minutes. • 3. Subsequently, 2.5 µL of a mixture containing KAT6A/KAT6B: Biotin-H3 (1-21, Genscript, C6829GL060) or KAT5/7/8: Bio-H4 (1-25, Genscript, C736BGL100) AcCOA (Sigma, A2056) was added, and the reaction proceeded at room temperature for 90 minutes. • 4. After the reaction, a detection mixture containing Europium-anti-acetyl-Histone H4 Lysine (H4Kac pan) Antibody (Perkin Elmer, TRF0412) and LANCE Ultra ULight™-Streptavidin in LANCE™ Detection buffer (10x) (Perkin Elmer, CR97-100) was added, followed by incubation at room temperature for 60 minutes. • 5. HTRF signals were measured using a BMG PHERAstar FSX (Ratio: 665nm/620nm). IC50 values were calculated by nonlinear regression using a four-parameter logistic equation in GraphPad Prism 8 software.

ZR-75-1 cells = experiment: ZR-75-1 cell proliferation assay (CellTiter-Glo); assay type: cell-based; conditions: Homo sapiens, ZR-75-1, 240 h, total culture period of 10 days, read-out: ZR-75-1 Proliferation Inhibition IC50
Description: II. ZR-75-1 cell proliferation assay
• 1. ZR-75-1 cells were seeded in 96-well plates and cultured overnight in an incubator at 37°C & 5% CO2. • 2. Compounds were diluted using culture medium and added to the 96-well plates. The plates were placed back into the incubator for continued culture. Every 5 days, the cells were trypsinized, counted, and re-seeded. After the cells had fully adhered, compounds were added again for incubation, for a total culture period of 10 days. • 3. After the culture period, 60 µL of CellTiter-Glo reagent (Promega, G7573) was added to each well. The plates were protected from light and shaken for 2 minutes to lyse the cells, followed by further incubation at room temperature, protected from light, for 30 minutes. • 4. Luminescence signals were read using a BMG PHERAstar FSX. IC50 values were calculated by nonlinear regression using a four-parameter logistic equation in GraphPad Prism 8 software.

[1] = test system: ZR-75-1 H3K23 Acetylation; experiment: Histone H3 acetylation assay (H3K23 acetylation in ZR-75-1 cells); assay type: cell-based; conditions: Homo sapiens, 72 hours incubation, Odyssey CLx fluorescence, read-out: ZR-75-1 H3K23 Acetylation Inhibition IC50
Description: III. Histone H3 acetylation assay
• 1. ZR-75-1 cells were seeded at 5000 cells/40 µL per well in 384-well plates and cultured overnight in an incubator at 37°C & 5% CO2. • 2. 40 nL of serially diluted compounds were added to the 384-well plates, followed by further incubation for 72 hours. • 3. The supernatant was discarded, and 8 w/v% paraformaldehyde (final concentration was 4 w/v%) was added directly to the wells to fix the cells at room temperature. • 4. After washing twice with PBS, a permeabilization agent (40 µL of methanol) was added and incubated for 10 minutes to permeabilize the cell membranes. • 5. After washing twice with PBS, a blocking buffer was added and incubated at room temperature for 1 hour for blocking. • 6. The blocking buffer was discarded, and 20 µL of primary antibodies (recombinant Anti-Histone H3 (acetyl K23) antibody and Anti-Histone H4 antibody) diluted in blocking buffer (1:1000 by volume dilution) were added, followed by incubation at 4°C overnight. • 7. After washing three times with PBST (0.05 vol% Tween-20 in PBS), 20 µL of fluorescent secondary antibodies (IRDye 680RD Goat anti-MOUSE, Licor, 926-68070; IRDye 800CW Goat anti-Rabbit, Licor, 926-32211) diluted in blocking buffer (1:2000 by volume dilution) were added, followed by incubation at room temperature, protected from light, for 1 hour. Then, the plates were washed three times with PBST. • 8. Scanning was performed using an Odyssey CLx, and the fluorescence signal value for each well was quantified. IC50 values were calculated by nonlinear regression using a four-parameter logistic equation in GraphPad Prism 8 software.

T1 sequence (Q92794 488-778 limits assumed): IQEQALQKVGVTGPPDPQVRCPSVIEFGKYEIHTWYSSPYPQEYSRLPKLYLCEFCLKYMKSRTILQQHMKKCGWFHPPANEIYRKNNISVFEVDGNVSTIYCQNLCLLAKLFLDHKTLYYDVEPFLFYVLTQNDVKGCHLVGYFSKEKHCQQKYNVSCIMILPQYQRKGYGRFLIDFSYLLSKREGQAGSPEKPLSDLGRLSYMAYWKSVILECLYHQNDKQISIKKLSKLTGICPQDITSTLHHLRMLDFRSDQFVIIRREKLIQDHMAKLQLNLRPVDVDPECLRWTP

Row | SMILES | IC50 (KAT6A) | IC50 (KAT6B) | IC50 [1] | IC50 (ZR-75-1 cells)
1 | COc1cc2c(NS(=O)(=O)c3c(OC)ccc4c3OCC3CC43)noc2cc1Cn1cccn1 (single isomer, unassigned) [Compound 33] | 1.1 nM | 1.2 nM | 0.2 nM | 0.03 nM
2 | COc1ccc2c(c1S(=O)(=O)Nc1noc3cc(Cn4cccn4)c(F)cc13)OCC1CC21 (single isomer, unassigned) [Compound 34] | 1.2 nM | 2.2 nM | 0.4 nM | 0.04 nM
3 | COc1ccc2c(c1S(=O)(=O)Nc1noc3cc(Cn4cccn4)c(F)c(OC)c13)OCC1CC21 (single isomer, unassigned) [Compound 30-P1] | 1.4 nM | 1.4 nM | 0.3 nM | 0.08 nM
4 | COc1ccc2c(c1S(=O)(=O)Nc1noc3cc(Cn4cccn4)cc(OC)c13)OCCCN2C [Compound 41, N-(6-((1H-Pyrazol-1-yl)methyl)-4-methoxybenzo[d]isoxazol-3-yl)-8-methoxy-5-methyl-2,3,4,5-tetrahydrobenzo[b][1,4]oxazepine-9-sulfonamide] | 8.9 nM | 97.5 nM | 20.2 nM | 4.8 nM
5 | COc1ccc2c(c1S(=O)(=O)Nc1noc3cc(Cn4cccn4)c(C4CC4)cc13)OCCCO2 [Compound 14, N-(6-((1H-Pyrazol-1-yl)methyl)-5-cyclopropylbenzo[d]isoxazol-3-yl)-7-methoxy-3,4-di hydro-2H-benzo[b][1,4]dioxepine-6-sulfonamide] | 1.4 nM | 12.7 nM | 11.5 nM | 8.6 nM
6 | COc1ccc2c(c1S(=O)(=O)Nc1noc3cc(Cn4cccn4)c4c(c13)OCC4)OCC21CC1 [Compound 36, N-(4-((1H-Pyrazol-1-yl)methyl)-2,3-dihydrobenzofuro[7,6-d]isoxazol-8-yl)-6-methoxy-2H-spiro[benzofuran-3,1'-cyclopropane]-7-sulfonamide] | 1.7 nM | 8 nM | 3.7 nM | 0.4 nM

Further compounds by falling IC50 (KAT6A), results first:

Row | IC50 (KAT6A) | IC50 (KAT6B) | IC50 [1] | SMILES | IC50 (ZR-75-1 cells)
7 | 2.7 nM | 19.2 nM | 8.6 nM | COc1cc2c(cc1S(=O)(=O)Nc1noc3cc(Cn4cccn4)cc(OC)c13)OCCCO2 [Compound 7, N-(6-((1H-Pyrazol-1-yl)methyl)-4-methoxybenzo[d]isoxazol-3-yl)-8-methoxy-3,4-dihyd ro-2H-benzo[b][1,4]dioxepine-7-sulfonamide] | 2.4 nM
8 | 2.2 nM | 19.9 nM | 2.3 nM | COc1ccc2c(c1S(=O)(=O)Nc1noc3cc(Cn4cccn4)cc(OC)c13)OCCOC2 [Compound 10, N-(6-((1H-Pyrazol-1-yl)methyl)-4-methoxybenzo[d]isoxazol-3-yl)-8-methoxy-2,3-dihyd ro-5H-benzo [e] [1,4] dioxepine-9-sulfonamide] | 1.4 nM
9 | 1.7 nM | 9.3 nM | 1.1 nM | COc1cc2c(NS(=O)(=O)c3c(OC)ccc4c3OCCCO4)noc2cc1Cn1cccn1 [Compound 15, N-(6-((1H-Pyrazol-1-yl)methyl)-5-methoxybenzo[d]isoxazol-3-yl)-7-methoxy-3,4-dihyd ro-2H-benzo[b][1,4] dioxepine-6-sulfonamide] | 0.6 nM
10 | 1.5 nM | 3.7 nM | 0.5 nM | COc1ccc2c(c1S(=O)(=O)Nc1noc3cc(Cn4cccn4)cc(OC)c13)OCC1CC21 (centres unmarked) [Compound 5, N-(6-((1H-Pyrazol-1-yl)methyl)-4-methoxybenzo[d]isoxazol-3-yl)-5-methoxy-1,1a,2,7b-tetrahydrocyclopropa[c]chromene-4-sulfonamide] | 0.2 nM
11 | 1.3 nM | 2.7 nM | 1.1 nM | COc1ccc2c(c1S(=O)(=O)Nc1noc3cc(Cn4cccn4)c(F)c(OC)c13)OCC21CC1 [Compound 31, N-(6-((1H-Pyrazol-1-yl)methyl)-5-fluoro-4-methoxybenzo[d]isoxazol-3-yl)-6-methoxy-2H-spiro[benzofuran-3,1'-cyclopropane]-7-sulfonamide] | 0.3 nM
